Where a name gives a salt, the structure may show the parent alone.

One test addresses T1, human hNET (Homo sapiens, UniProt P23975).
T1 construct: expressed in transfected cells; host or cells: MDCK (MDCK-Net6)
Briefly: Norepinephrine (NE) uptake assay in MDCK-Net6 cells. In kind it is cell-based. Particulars: [3H]NE uptake; for inhibition at 1 µM: MDCK-Net6 cells, read-out: hNET Percentage inhibition at 1 μM; for EC50: MDCK-Net6 cells stably transfected with hNET. Here is the method: Cells were plated at 300,000/T75 flask and cells were split twice weekly. […] Cells were plated at 250,000 cells/T75 flask and split twice weekly.
Norepinephrine (NE) Uptake Assay
On day 1, cells were plated at 3,000 cells/well in growth medium and maintained in a cell incubator (37° C., 5% CO2). On day 2, growth medium was replaced with 200 μl of assay buffer (25 mM HEPES; 120 mM NaCl; 5 mM KCl; 2.5 mM CaCl2; 1.2 mM MgSO4; 2 mg/ml glucose (pH 7.4, 37° C.)) containing 0.2 mg/ml ascorbic acid and 10 μM pargyline. Plates containing cells with 200 μl of assay buffer were equilibrated for 10 minutes at 37° C. prior to addition of compounds. A stock solution of desipramine was prepared in DMSO (10 mM) and delivered to triplicate wells containing cells for a final test concentration of 1 μM. Data from these wells were used to define non-specific NE uptake (minimum NE uptake). Test compounds were prepared in DMSO (10 mM) and diluted in assay buffer according to test range (1 to 10,000 nM). Twenty-five microliters of assay buffer (maximum NE uptake) or test compound were added directly to triplicate wells containing cells in 200 μl of assay buffer. The cells in assay buffer with test compounds were incubated for 20 minutes at 37° C. […] The reaction was terminated by decanting the supernatant from the plate. The plates containing cells were washed twice with 200 μl assay buffer (37° C.) to remove free radioligand. The plates were then inverted, left to dry for 2 minutes, then reinverted and air-dried for an additional 10 minutes. […] After cell lysis, 75 μl of scintillation cocktail was added to each well and the plates were sealed with film tape. The plates were returned to the shake table and vigorously shaken for a minimum of 10 minutes to ensure adequate partitioning of organic and aqueous solutions. The plates were counted in a Wallac Microbeta counter (PerkinElmer) to collect the raw cpm data.
For each experiment, a data stream of cpm values collected from the Wallac Microbeta counter was downloaded to a Microsoft Excel statistical application program. Calculations of EC50 values were made using the transformed-both-sides logistic dose response program written by Wyeth Biometrics Department.

The target of a further test is T2, human 5-HT2A receptor (Homo sapiens, UniProt P28223).
T2 construct: expressed in transfected cells; host or cells: CHO
Description: 5-HT2A FLIPR assay (calcium response to DOI) in CHO cells. In kind it is cell-based. Conditions: for IC50: antagonist inhibition of 3 nM DOI stimulation, CHO cells, FLIPR; for inhibition at 1 µM: CHO, read-out: 5-HT2A Percentage inhibition at 1 μM. On the procedure: Cells are washed with PBS without Ca^2+ and 3 mL Trypsin is added to dissociate cells. After 3 minute incubation, 7 mL Trypsin Neutralizing Solution is added. Cells are then aspirated from flask and mixed in a 50 mL conical tube. 10 μL sample is used to count cells on a hemacytometer. […] Two 96-well drug plates are prepared for each cell plate. Plate 1 will contain compounds to be tested and plate 2 will contain the agonist DOI (3 nM) to activate a calcium response. Specific details of compound preparation are listed below. […] Outside wells are not used due to an edge effect seen in these cells. The reference compounds DOI and 5-HT are used as standard 5HT agonists. […] Standards for plate one are Vehicle, 1 μM DOI, and 3 nM MDL. […] On the day of the assay, test compound solutions of appropriate concentrations are diluted in assay buffer as described for single concentration testing. This procedure is followed to ensure that the solvent concentration is consistent across dilutions. The typical concentration testing range of compounds is 10^−10—10^−5 M in half log or full log increments. A 10 μM DOI stock is diluted to 60 nM and added to the respective wells. The pipeting station of the FLIPR will make an additional 20-fold dilution for a final concentration of 3 nM. Standards for this plate include Vehicle and 3 nM DOI. Contents of dye vial (Molecular Devices #R8090) are dissolved in 100 mL of 1×HBSS supplemented with 20 mM HEPES. Aliquots can be frozen at −20° C. for up to one week for future use. On the day of assay, dye is thawed and diluted to half concentration. […] Cells are allowed to adhere for 24 hours in 96-well plates. […] Cell, compound and DOI plates are loaded into the FLIPR machine. The baseline fluorescence level is read once every second for 1 minute. Compound (10 μL) is transferred from the compound plate to the cells and the fluorescence level recorded every 6 seconds for 2 minutes to determine any agonist activity. Baseline fluorescence is recorded again every second for 10 seconds. For antagonist determination, 10 μL of 3 nM DOI is transferred from the DOI plate to the cells and the fluorescence level recorded every 6 seconds for 5 minutes. The pipetting unit of the FLIPR machine completes all transfers. […] The data are log transformed prior to analysis.

T2 sequence (P28223 whole entry): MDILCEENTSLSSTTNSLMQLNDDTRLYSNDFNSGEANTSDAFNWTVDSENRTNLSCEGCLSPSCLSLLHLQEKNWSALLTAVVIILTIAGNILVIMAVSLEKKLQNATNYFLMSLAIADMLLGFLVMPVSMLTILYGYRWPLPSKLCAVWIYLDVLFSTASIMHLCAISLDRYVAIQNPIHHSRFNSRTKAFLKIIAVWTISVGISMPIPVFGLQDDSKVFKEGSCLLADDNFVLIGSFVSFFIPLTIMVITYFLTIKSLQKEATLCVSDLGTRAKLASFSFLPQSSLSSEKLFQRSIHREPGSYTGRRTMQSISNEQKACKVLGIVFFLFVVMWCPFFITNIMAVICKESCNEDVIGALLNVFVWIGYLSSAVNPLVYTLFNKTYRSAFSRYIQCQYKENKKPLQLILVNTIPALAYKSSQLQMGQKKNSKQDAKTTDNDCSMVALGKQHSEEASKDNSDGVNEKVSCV
T1 sequence (P23975 whole entry): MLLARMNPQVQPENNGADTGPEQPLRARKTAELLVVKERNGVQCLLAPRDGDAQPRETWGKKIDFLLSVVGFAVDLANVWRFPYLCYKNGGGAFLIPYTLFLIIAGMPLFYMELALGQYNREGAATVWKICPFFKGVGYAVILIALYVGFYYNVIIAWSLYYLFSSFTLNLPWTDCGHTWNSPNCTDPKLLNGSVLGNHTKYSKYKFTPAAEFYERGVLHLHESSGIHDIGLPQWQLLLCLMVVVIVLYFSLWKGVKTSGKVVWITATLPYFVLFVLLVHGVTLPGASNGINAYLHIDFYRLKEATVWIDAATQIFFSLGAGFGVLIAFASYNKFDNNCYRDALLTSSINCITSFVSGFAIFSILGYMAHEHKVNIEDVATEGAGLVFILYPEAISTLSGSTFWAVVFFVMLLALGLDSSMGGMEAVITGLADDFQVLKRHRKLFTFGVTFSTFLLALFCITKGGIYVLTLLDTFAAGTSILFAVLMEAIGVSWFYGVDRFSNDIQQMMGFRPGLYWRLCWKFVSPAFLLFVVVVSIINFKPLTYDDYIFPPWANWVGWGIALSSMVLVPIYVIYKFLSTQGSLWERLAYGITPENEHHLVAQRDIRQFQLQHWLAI

For `CCCNC[C@@H](O)[C@H](c1ccccc1)N1C(=O)C2(CCCCC2)c2cc(F)ccc21` [Example 102, 5′-fluoro-1′-[(1S,2R)-2-hydroxy-1-phenyl-3-(propylamino)propyl]spiro[cyclohexane-1,3′-indol]-2′(1′H)-one hydrochloride], the inhibition at 1 µM at human hNET is 0%. Further, the IC50 at human 5-HT2A receptor was found to be 895 nM.
For the molecule `CNC[C@@H](O)[C@H](c1ccccc1)n1ccc2cc(C#Cc3ccccc3)ccc21` [Example 93, (1S,2R)-3-(methylamino)-1-phenyl-1-[5-(phenylethynyl)-1H-indol-1-yl]propan-2-ol hydrochloride], the EC50 on human hNET is 287 nM. Moreover, at human 5-HT2A receptor, the inhibition at 1 µM was 36%.
On to `CC(C)NC[C@@H](O)[C@H](c1ccccc1)n1ccc2cc(OCc3ccccc3)ccc21` [Example 85, (1S,2R)-1-[5-(benzyloxy)-1H-indol-1-yl]-3-(isopropylamino)-1-phenylpropan-2-ol hydrochloride], for which the inhibition at 1 µM was 4% on human hNET and 32% at human 5-HT2A receptor.
As to `CCCNC[C@@H](O)[C@H](c1ccccc1)N1C(=O)C2(CCCCC2)c2ccc(F)cc21` [Example 98, 6′-fluoro-1′-[(1S,2R)-2-hydroxy-1-phenyl-3-(propylamino)propyl]spiro[cyclohexane-1,3′-indol]-2′(1′H)-one hydrochloride], the inhibition at 1 µM on human hNET is 0%. The IC50 on human 5-HT2A receptor worked out at 672 nM.
Take `CNC[C@@H](O)[C@H](c1ccccc1)N1C(=O)C2(CCCCC2)c2cc(C#N)ccc21` [Example 107, 1′-[(1S,2R)-2-hydroxy-3-(methylamino)-1-phenylpropyl]-2′-oxo-1′,2′-dihydrospiro[cyclohexane-1,3′-indole]-5′-carbonitrile hydrochloride]: the 50% effective concentration (EC50) at human hNET is 349 nM. The half-inhibitory concentration (IC50) on human 5-HT2A receptor stood at 168 nM.
`CNC[C@@H](O)[C@H](c1ccccc1)n1ccc2cc(OCc3cccc(OC)c3)ccc21` [Example 6, (1S,2R)-1-{5-[(3-methoxybenzyl)oxy]-1H-indol-1-yl}-3-(methylamino)-1-phenylpropan-2-ol hydrochloride] showed a concentration for a half-maximal effect (EC50) at human hNET of 17 nM. Besides, the half-maximal inhibitory concentration (IC50) on human 5-HT2A receptor was determined as 888 nM.
For `CNC[C@@H](O)[C@H](c1ccccc1)N1CCc2cc(C(=O)Nc3cccc(Cl)c3)ccc21` [Example 78, N-(3-Chlorophenyl)-1-[(1S,2R)-2-hydroxy-3-(methylamino)-1-phenylpropyl]indoline-5-carboxamide hydrochloride], it took 362 nM to reach a half-maximal effect at human hNET (EC50). The IC50 at human 5-HT2A receptor turned out to be 691 nM.
`CN(C)C[C@@H](O)[C@H](c1ccccc1)N1C(=O)C2(CCCCC2)c2cc(F)ccc21` [Example 103, 1′-[(1S,2R)-3-(dimethylamino)-2-hydroxy-1-phenylpropyl]-5′-fluorospiro[cyclohexane-1,3′-indol]-2′(1′H)-one hydrochloride]: the inhibition at 1 µM at human hNET is 19%. Also, on human 5-HT2A receptor, the IC50 turned out to be 77 nM.
In turn, `CNC[C@@H](O)[C@H](c1ccccc1)N1CCc2cc(NC(=O)c3cccc(Cl)c3)ccc21` [Example 72, 3-Chloro-N-{1-[(1S,2R)-2-hydroxy-3-(methylamino)-1-phenylpropyl]-2,3-dihydro-1H-indol-5-yl}benzamide hydrochloride] displayed an EC50 at human hNET of 95 nM. Moreover, the inhibition at 1 µM at human 5-HT2A receptor came out at 60%.
Molecule `CNC[C@@H](O)[C@H](c1ccccc1)n1ccc2cc(OCc3ccccc3)ccc21` [Example 1, (1S,2R)-1-[5-(benzyloxy)-1H-indol-1-yl]-3-(methylamino)-1-phenylpropan-2-ol hydrochloride] registered an EC50 at human hNET of 18 nM. The half-maximal inhibitory concentration (IC50) on human 5-HT2A receptor was determined as 234 nM.
For `CNC[C@@H](O)[C@H](c1ccccc1)n1ccc2cc(OCc3cccc(C)c3)ccc21` [Example 15, (1S,2R)-3-(methylamino)-1-{5-[(3-methylbenzyl)oxy]-1H-indol-1-yl}-1-phenylpropan-2-ol hydrochloride], the concentration for a half-maximal effect (EC50) at human hNET was 88 nM. On human 5-HT2A receptor, the half-inhibitory concentration (IC50) was 809 nM.
The molecule `CNC[C@@H](O)[C@H](c1ccccc1)n1ccc2cc(NC(=O)c3ccc(C)c(Cl)c3)ccc21` [Example 71, 3-chloro-N-{1-[(1S,2R)-2-hydroxy-3-(methylamino)-1-phenylpropyl]-1H-indol-5-yl}-4-methylbenzamide hydrochloride] yielded an EC50 at human hNET of 92 nM. Further, at human 5-HT2A receptor, the inhibition at 1 µM was determined as 44%.
Turning to `CNC[C@@H](O)[C@H](c1ccccc1)n1ccc2cc(CCc3ccccc3)ccc21` [Example 94, (1S,2R)-3-(methylamino)-1-phenyl-1-[5-(2-phenylethyl)-1H-indol-1-yl]propan-2-ol hydrochloride], the 50% effective concentration (EC50) at human hNET was determined as 86 nM. Also, the half-inhibitory concentration (IC50) on human 5-HT2A receptor turned out to be 636 nM.
Turning to `CNC[C@@H](O)[C@H](c1ccccc1)n1ccc2cc(NC(=O)c3ccccc3)ccc21` [Example 75, N-{1-[(1S,2R)-2-Hydroxy-3-(methylamino)-1-phenylpropyl]-1H-indol-5-yl}benzamide hydrochloride], the midpoint of the response at human hNET, the EC50, lay at 299 nM. For the same molecule, on human 5-HT2A receptor, the inhibition at 1 µM is 34%.
On to `CNC[C@@H](O)[C@H](c1ccccc1)n1ccc2cc(Oc3ccccc3)ccc21` [Example 19, (1S,2R)-3-(methylamino)-1-[5-(phenoxy)-1H-indol-1-yl]-1-phenylpropan-2-ol hydrochloride], for which the results for the inhibition at 1 µM at human hNET and on human 5-HT2A receptor were 27% and 39%, respectively.
On human hNET, `CNC[C@@H](O)[C@H](c1ccccc1)n1ccc2cc(OCc3ccccc3F)ccc21` [Example 11, (1S,2R)-1-{5-[(2-fluorobenzyl)oxy]-1H-indol-1-yl}-3-(methylamino)-1-phenylpropan-2-ol hydrochloride] had a 50% effective concentration (EC50) of 52 nM. Also, the half-maximal inhibitory concentration (IC50) on human 5-HT2A receptor stood at 1260 nM.
The molecule `CNC[C@@H](O)[C@H](c1ccccc1)N1C(=O)C2(CCCCC2)c2c1ccc(F)c2F` [Example 109, 4′,5′-difluoro-1′-[(1S,2R)-2-hydroxy-3-(methylamino)-1-phenylpropyl]spiro[cyclohexane-1,3′-indol]-2′(1′H)-one hydrochloride] had an EC50 at human hNET of 107 nM. In addition, the concentration for half-maximal inhibition (IC50) at human 5-HT2A receptor stood at 1480 nM.
`CCCNC[C@@H](O)[C@H](c1ccccc1)n1ccc2cc(OCc3ccccc3)ccc21` [Example 84, (1S,2R)-1-[5-(benzyloxy)-1H-indol-1-yl]-1-phenyl-3-(propylamino)propan-2-ol hydrochloride]: the inhibition at 1 µM at human hNET came out at 11%; at human 5-HT2A receptor it was 50%.
`CNC[C@@H](O)[C@H](c1ccccc1)n1ccc2cc(OCc3cccc(F)c3)ccc21` [Example 12, (1S,2R)-1-{5-[(3-fluorobenzyl)oxy]-1H-indol-1-yl}-3-(methylamino)-1-phenylpropan-2-ol hydrochloride]: the half-maximal effective concentration (EC50) on human hNET came out at 36 nM. Also, the IC50 on human 5-HT2A receptor was 979 nM.
For `CNC[C@@H](O)[C@H](c1ccccc1)n1ccc2cc(C(=O)Nc3cccc(Cl)c3)ccc21` [Example 79, N-(3-Chlorophenyl)-1-[(1S,2R)-2-hydroxy-3-(methylamino)-1-phenylpropyl]-1H-indole-5-carboxamide hydrochloride], in that order: 328 nM and 84 nM.

A word on the inhibition: it is the percentage by which the read-out fell short of the control. By IC50 is commonly meant the concentration that gives 50% inhibition. One may read the EC50 as the concentration needed to bring the measured effect to its halfway point. A higher EC50 goes with lower potency in that assay.

For the origin of these results see patent US20070072897A1, “Phenylaminopropanol derivatives and methods of their use” (Wyeth, priority 2005, published 2007).
